This is an account of results in patent US20100305047A1, “CYCLOSPORIN DERIVATIVES FOR ENHANCING THE GROWTH OF HAIR” (ALLERGAN, INC., priority 2009, published 2010).

Starred links: 1 amine or outer side, 2 acyl side, 3 side chain; linkers in the order of their positions; H or OH if unused. Non-standard residues stand in square brackets, D forms with d. Residues, ends and D or L forms follow the SMILES beside them. ξ: configuration not given here. ξNMeBmt = C/C=C/C[C@@H](C)[C@@H](O)C(NC)C(=O)O; X1 = CN(C(SCCNC(=N)N)C(=O)[*:2])[*:1]; NMeL = CN[C@@H](CC(C)C)C(=O)O; dNMeL = CN[C@H](CC(C)C)C(=O)O; NMeV = CN[C@H](C(=O)O)C(C)C; ξNMeL = CNC(CC(C)C)C(=O)O; dAbu = CC[C@@H](N)C(=O)O

The subject of this assay is lashes and hair around the eyes of patients. The experiment in a line: In vivo treatment: appearance of lashes and hair around the eyes of patients treated in only one eye. Set-up: species or system human. As to conditions: glaucoma patients, one drop daily to one eye. The method, then:
A study is initiated to systematically evaluate the appearance of lashes and hair around the eyes of patients who are administering 3-[(2-Guanidyl)-ethylthio]-cyclosporin A (the cyclosporine A derivative of Example A, above) in only one eye. The study involves 10 subjects, 5 male, 5 female, average age 70 years, (ranging from 50-94 years). All patients have glaucoma. Each subject is treated daily by the topical application of one drop of the composition of Example 3, below, to provide 3-[(2-Guanidyl)-ethylthio]-cyclosporin A at a dosage of 1.5 µg/ml/eye/day, to the region of one eye by instilling the drop onto the surface of the eye. The region of the fellow control eye is not treated with 3-[(2-Guanidyl)-ethylthio]-cyclosporin A and serves as a control. The mean duration of exposure to 3-[(2-Guanidyl)-ethylthio]-cyclosporin A prior to assessing the parameter of lash growth between the control and study eye is 129 days (range 90-254 days). Observations are made under high magnification at the slit lamp biomicroscope. Documentation of differences between the control and treatment areas is accomplished using a camera specially adapted for use with the slit lamp biomicroscope.

[1] abbreviates: 1.5 µg/ml/eye/day, mean exposure 129 days, vs untreated fellow eye, slit lamp biomicroscope.

Take `C/C=C/C[C@@H](C)[C@@H](O)C1C(=O)N[C@H](CC)C(=O)N(C)C(SCCNC(=N)N)C(=O)N(C)[C@@H](CC(C)C)C(=O)N[C@H](C(C)C)C(=O)N(C)C(CC(C)C)C(=O)N[C@H](C)C(=O)N[C@@H](C)C(=O)N(C)[C@H](CC(C)C)C(=O)N(C)[C@H](CC(C)C)C(=O)N(C)[C@@H](C(C)C)C(=O)N1C` (stereo partly shown) [3-[(2-Guanidyl)-ethylthio]-cyclosporin A] (cyclo(A[dNMeL][dNMeL][NMeV][ξNMeBmt][dAbu][X1][NMeL][dV][ξNMeL][dA])): under “1.5 µg/ml/eye/day, mean exposure 129 days, vs untreated fellow eye, areas below and lateral to the lower lid”, the “Increased growth of vellus hair on lids” value was “vellus hairs are increased in number, appear more robust and are much longer and thicker in treated than in control eyes”. Besides, under setting [1], the Length of lashes entry is “Increased length of eyelashes is regularly observed” and the Number of lashes result is “Increased numbers of lashes are observed in the treated eye of each patient”. For the same compound, where the note is “lash-like hairs above the lash line and in the medial and lateral canthal areas”, the “Perpendicular angulation of hairs” value is “the hairs are much longer, thicker and heavier. They also leave the surface of the skin at a more acute angle”.
